Laboratory results published in US6699877B2 (Gruenenthal GmbH, priority 2000, dated 2004).

Key:
[1] = test system: formalin-induced nociception; experiment: Formalin test, rat (second/late phase); assay type: in vivo; conditions: 21.5 mg/kg, late phase
Method: Experiments to determine the antinociceptive activity of the compounds according to the invention of Formula I were carried out in the formalin test on male rats (Sprague-Dawley, 150-170 g).
In the formalin test, the first (early) phase (0-15 min after formalin injection) was distinguished from the second (late) phase (15-60 min after formalin injection) (D. Dubuisson, S. G. Dennis, Pain 4, 161-174 (1977)). The early phase, as a direct reaction to the formalin injection, represents a model for acute pain while the late phase is considered as a model for persistent (chronic) pain (T. J. Coderre, J. Katz, A. L. Vaccarino, R. Melzack, Pain, Vol. 52, p. 259,1993).
The compounds according to the invention were investigated in the second phase of the formalin test to obtain information about the effects of substances in chronic/inflammatory pain.
A nociceptive reaction was induced in freely moving experimental animals by a single subcutaneous formalin injection (50 μl, 5%) into the dorsal side of the back right paw, the nociceptive reaction being portrayed by the following behavioral parameters: lifting and holding the respective paw (Score 1), shaking and twitching (Score 2), licking and biting (Score 3). The different behavioral patterns triggered by the formalin injection were recorded continuously by observing the animals in the late phase of the formalin test and were weighted differently in an evaluation. Normal behavior in which the animal loads all four paws uniformly was recorded as score 0. The moment of administration prior to the formalin injection was selected according to the method of administration of the compounds according to the invention (intraperitoneal: 15 min, intravenous: 5 min). The described behavioral patterns (Score 1 to 3) in the animals are reduced and possibly even eliminated after injection of substances which have an antinociceptive effect in the formalin test. A comparisom was made with control animals which had received vehicles (solvents) prior to formalin administration. The nociceptive behavior was calculated as a so-called pain rate (PR). The various behavioral parameters received a different weighting (Factor 0, 1, 2, 3). Calculation took place at partial intervals of 3 min according to the following formula:
Substance and vehicle groups include n=10 animals in each case. The effect of the substance was determined as a percentage change versus control on the basis of the PR calculations. The ED50 calculations were made by regression analysis.

[2] = target: T1, glycine binding site of the NMDA receptor channel (Rattus norvegicus, UniProt P35439); experiment: Receptor binding, displacement of (3H)-MDL 105.519 on rat cerebral membrane homogenates; conditions: 10 μmol/l test substance, 1 nmol/l (3H)-MDL 105.519; for inhibition at 10 µM: read-out: Displacement (%, 10 μmol/l) of radioactive ligand from specific binding
T1 construct: from tissue; host or cells: rat brain cortex and hippocampus membrane homogenate
Method: Receptor Binding (Glycine Binding Site of the NMDA Receptor Channel)
Experiments to determine the affinity of the compounds according to the invention of Formula I to the glycine binding site of the NMDA receptor channel were carried out on cerebral membrane homogenates (homogenate of Cortex- and Hippocampus-Areal from the brain of male rats, Wistar strain) (B. M. Baron, B. W. Siegel, B. L. Harrison, R. S. Gross, C. and P. Towers, Journal of Pharmacology and Experimental Therapeutics, Vol. 279, p. 62, 1996).
For this purpose, Cortex and Hippocampus from freshly removed rats' brains were dissected, homogenized in 5 mmol/l TRIS-acetate buffer, 0.32 mol/l sacharose pH 7.4 (10 ml/g fresh weight) with a Potter homogenizer (made by Braun/Melsungen, 10 piston strokes at 500 rpm) while cooling with ice and subsequently centrifuged for 10 minutes at 1,000 g and 4° C. The first supernatant material was collected and the sediment homogenized again with […] TRIS-acetate buffer, 0.32 mol/l safcharose pH 7.4 (5 ml/g original fresh weight) using the Potter homogenizer (10 piston strokes at 500 rpm) while cooling with ice and centrifuged for 10 minutes at 1,000 g and 4° C. The resultant supernatant material was combined with the supernatant material from the first centrifugation and centrifuged at 17,000 g for 20 minutes at 4° C. The supernatant material after this centrifugation was discarded, the membrane sediment taken up with 5 mmol/l TRIS-acetate buffer pH 8.0 (20 ml/g original fresh weight) and homogenized with 10 piston strokes at 500 rpm.
The membrane homogenate was then incubated for 1 hour at 4° C. and centrifuged for 30 minutes at 50,000 g and 4° C. The supernatant material was discarded and the centrifuge tube with the membrane sediment sealed with parafilm and frozen for 24 hours at −20° C. The membrane sediment was thawed on the following day, taken up with ice-cold 5 mmol/l TRIS-acetate buffer, 0.1% saponin (w/v) pH 7.0 (10 ml/g original fresh weight), homogenized with 10 piston strokes at 500 rpm and subsequently centrifuged for 20 minutes at 50,00 g and 4° C. The resultant supernatant material was discarded, the sediment taken up in a small volume with 5 mmol/l TRIS-acetate buffer pH 7.0 (about 2 ml/g original fresh weight) and homogenized again with 10 piston strokes at 500 rpm. After determining the protein content, the membrane homogenate was adjusted to a protein concentration of 10 mg protein/ml using 5 mmol/l TRIS-acetate buffer pH 7.0 and frozen in aliquots for testing.
For the receptor binding test, aliquots were thawed, diluted 1:10 with 5 mmol/l TRIS-acetate buffer pH 7.0, homogenized with 10 piston strokes at 500 rpm using the potter homogenizer (10 piston strokes at 500 rpm) while cooling with ice and centrifuged for 60 minutes at 55,000 g at 4° C. The supernatant material was decanted, the membrane sediment adjusted to a protein concentration of 1 mg/ml with ice-cold 50 mmol/l TRIS-acetate buffer pH 7.0, homogenized again with 10 piston strokes at 500 rpm and kept in suspension in the ice bath while stirring on a magnetic stirrer. 100 μl of this membrane homogenate per 1 ml of feedstock was used in each case in the receptor binding test (0.1 mg protein/ml in the final batch).
In the binding test, 50 mmol/l TRIS-acetate buffer pH 7.0 was used as buffer and 1 nmol/l (^3H)-MDL 105.519 (B. M. Baron et al 1996) was used as radioactive ligand. The proportion of unspecific binding was determined in the presence of 1 mmol/l glycine.
In further batches, the compounds according to the invention were added in concentration series and the displacement of the radioactive ligand from its specific binding to the glycine binding site of the NMDA receptor channel determined. The respective triple batches were incubated for 120 minutes at 4° C. and then harvested to determine the radioactive ligands bound to the membrane homogenate by filtration through glass fiber filter mats (GF/B). […]

Row | Structure (SMILES) | inhibition at 10 µM [2] | also measured
1 | CCOC(=O)C1Nc2cc(Cl)cc(Cl)c2C2C=CCC12 (centres unmarked) [Example 1, 7,9-dichloro-3a,4,5,9b-tetrahydro-3H-cyclopenta[c]quinoline-4-carboxylic Acid Ethyl Ester] |  | % inhibition of formalin-induced nociception ([1]; i.p.): 88.3%
2 | O=C(O)C1Nc2ccc(Cl)cc2C2C=CCC12 (centres unmarked) [Example 4, 8-chloro-3a-4,5,9b-tetrahydro-3H-cyclo-penta[c]quinoline-4-carboxylic Acid] |  | % inhibition of formalin-induced nociception ([1]; i.v.): 67.1%
3 | O=C(O)C1CC(c2ccc(Cl)cc2)c2cc(Cl)c(C(F)(F)F)cc2N1 (centres unmarked) [Example 87, 6-chloro-4-(4-chlorophenyl)-7-trifluoromethyl-1,2,3,4-tetrahydroquinoline-2-carboxylic acid] | 37% | 
4 | CCOC(=O)C1Nc2ccc(C#N)cc2C2c3ccccc3CC12 (centres unmarked) [Example 88, 2-cyano-5,6a,7,11b-tetrahydro-6H-indeno[2,1-c]quinoline-6-carboxylic acid ethyl ester] | 34% | 
5 | Cc1ccc(C2CC(C(=O)O)Nc3c(Cl)cc(Br)cc32)c(C)c1 (centres unmarked) [Example 91, 6-bromo-8-chloro-4-(2,4-dimethylphenyl)-1,2,3,4-tetrahydroquinoline-2-carboxylic acid] | 46% | 
6 | COc1cc(C2c3cc(SC)ccc3NC(C(=O)O)C2C)ccc1O (centres unmarked) [Example 93, 4-(4-hydroxy-3-methoxyphenyl)-3-methyl-6-methylsulphanyl-1,2,3,4-tetrahydroquinoline-2-carboxylic acid] | 44% | 
7 | COc1ccc(C2c3cc(C#N)ccc3NC(C(=O)O)C2c2ccc(OC)cc2)cc1 (centres unmarked) [Example 94, 6-cyano-3,4-bis-(4-methoxyphenyl)-1,2,3,4-tetrahydroquinoline-2-carboxylic acid] | 55% | 
8 | CCOC(=O)C1Nc2c(Cl)cc(F)cc2C(c2ccc(OC)cc2)C1c1ccc(OC)cc1 (centres unmarked) [Example 95, 8-chloro-6-fluoro-3,4-bis-(4-methoxyphenyl)-1,2,3,4-tetrahydroquinoline-2-carboxylic acid ethyl ester] | 33% | 
9 | CCOC(=O)C1CC(c2ccc(OCc3ccccc3)c(OC)c2)c2cc(C(C)(C)C)ccc2N1 (centres unmarked) [Example 96, 4-(4-benzyloxy-3-methoxyphenyl)-6-tert-butyl-1,2,3,4-tetrahydroquinoline-2-carboxylic acid ethyl ester] | 29% | 
10 | O=C(O)C1CC(c2ccc(Cl)cc2)c2c(Cl)cc(Cl)cc2N1 (centres unmarked) [Example 99, 5,7-dichloro-4-(4-chlorophenyl)-1,2,3,4-tetrahydroquinoline-2-carboxylic acid] |  | Displacement (%, 10 μmol/l) of radioactive ligand from specific binding [2]: 43%

More lines, main results first:

Row | inhibition at 10 µM [2] | Structure (SMILES) | also measured
11 | 43% | CCOC(=O)C1CC(c2ccccc2F)c2c(Cl)cc(Cl)cc2N1 (centres unmarked) [Example 26, 5,7-dichloro-4-(2-fluorophenyl)-1,2,3,4-tetrahydroquinoline-2-carboxylic Acid Ethyl Ester] | % inhibition of formalin-induced nociception ([1]; i.p.): 82.6%
12 | 40% | CCOC(=O)C1CC(c2ccccc2Cl)c2c(Cl)cc(Cl)cc2N1 (centres unmarked) [Example 33, 5,7-dichloro-4-(2-chlorophenyl)-1,2,3,4-tetrahydroquinoline-2-carboxylic Acid Ethyl Ester] | % inhibition of formalin-induced nociception ([1]; i.p.): 69.0%
13 | 32% | CCOC(=O)C1CC(c2cccc(Cl)c2)c2c(Cl)cc(Cl)cc2N1 (centres unmarked) [Example 34, 5,7-dichloro-4-(3-chlorophenyl)-1,2,3,4-tetrahydroquinoline-2-carboxylic Acid Ethyl Ester] | % inhibition of formalin-induced nociception ([1]; i.p.): 53.1%
14 | 32% | CCOC(=O)C1CC(c2ccc(Cl)cc2)c2c(Cl)cc(Cl)cc2N1 (centres unmarked) [Example 35, 5,7-dichloro-4-(4-chlorophenyl)-1,2,3,4-tetrahydroquinoline-2-carboxylic Acid Ethyl Ester] | % inhibition of formalin-induced nociception ([1]; i.p.): 21.9%
15 | 30% | N#Cc1ccc2c(c1)C(c1ccccc1Cl)CC(C(=O)O)N2 (centres unmarked) [Example 89, 4-(2-chlorophenyl)-6-cyano-1,2,3,4-tetrahydroquinoline-2-carboxylic acid] | 
16 | 46% | CCOC(=O)C1Nc2c(Cl)cc(Br)cc2C(c2ccccc2)C1C (centres unmarked) [Example 90, 6-bromo-8-chloro-3-methyl-4-phenyl-1,2,3,4-tetrahydroquinoline-2-carboxylic acid ethyl ester] | 
17 | 62% | O=C(O)C1CC(c2ccccc2Br)c2cc(Br)cc(Cl)c2N1 (centres unmarked) [Example 92, 6-bromo-4-(2-bromophenyl)-8-chloro-1,2,3,4-tetrahydroquinoline-2-carboxylic acid] | 
18 | 39% | O=C(O)C1CC(c2ccc(Cl)cc2)c2c(Cl)cc(Cl)cc2N1 (centres unmarked) [Example 97, 5,7-dichloro-4-(4-chlorophenyl)-1,2,3,4-tetrahydroquinoline-2-carboxylic acid] | 
19 | 51% | O=C(O)C1CC(c2cccc(Cl)c2)c2c(Cl)cc(Cl)cc2N1 (centres unmarked) [Example 98, 5,7-dichloro-4-(3-chlorophenyl)-1,2,3,4-tetrahydroquinoline-2-carboxylic acid] | 
20 | 80% | O=C(O)C1Nc2cc(Cl)cc(Cl)c2C2c3ccccc3CCC12 (centres unmarked) [Example 100, 1,3-dichloro-5,6,6a,7,8,12b-hexahydrobenzo[k]phenanthridine-6-carboxylic acid] | 
21 | 98% | O=C(O)C1Nc2cc(Cl)cc(Cl)c2C2c3ccccc3CC12 (centres unmarked) [Example 101, 1,3-dichloro-5,6a,7,11b-tetrahydro-6H-indeno[2,1-c]quinoline-6-carboxylic acid] | 
22 | 61% | Cc1cc(C)cc(C2CC(C(=O)O)Nc3cc(Cl)cc(Cl)c32)c1 (centres unmarked) [Example 102, 5,7-dichloro-4-(3,5-dimethyl-phenyl)-1,2,3,4-tetrahydroquinoline-2-carboxylic acid] | 
